{"source": "patent US10227591B2", "about": "“Modulation of human cytomegalovirus replication by micro-RNA 132 (miR132), micro-RNA 145 (miR145) and micro-RNA 212 (miR212)” (priority 2009, dated 2019)", "key": {"MeCP2": {"test_system": "MeCP2", "test": "MeCP2 protein Western blot after transfection with miR132 or miR212 LNA", "format": "cell-based, Human", "settings": "HEL cells transfected with 500 pmol LNA; nuclear enriched extracts; versus scramble LNA", "from_the_text": "In order to assess the role of miR132 and miR212 in virus replication, miR132 and miR212 were inhibited using antisense locked nucleic acid (LNA) oligonucleotides targeting miR132 or miR212 Inhibition of miR132 and/or miR212 in this way counteracts the increase in miR132 or miR212 expression that occurs during HCMV infection. To test the efficacy of the LNAs, HEL cells were transfected with 500 pmol of scramble, miR132, or miR212 specific locked nucleic acid (Exiqon) to inhibit miRNA function. Nuclear enriched extracts were prepared, and protein levels were determined by Western blot."}, "HCMV [1]": {"test_system": "HCMV", "test": "HCMV virus release by plaque assay after antisense miR132 LNA transfection", "format": "cell-based", "settings": "for viral replication (virus release, viral proteins IE2, pp65, gB55): summary statement in the description, transfection of cells", "protocol": "(§1) To determine the role of miR132 on HCMV replication, HEL cells were transfected with antisense miR132 LNA, and were infected with HCMV. The amount of virus released from infected cells was quantitated by plaque assay, and viral protein accumulation was analyzed by Western blot of protein lysates from infected cells. […] Taken together with the previous data, this experiment confirms that miR132 is necessary for efficient HCMV replication, and that HCMV replication can be effectively attenuated by inhibition of miR132."}, "[2]": {"test_system": "HCMV proteins IE2, pp65, gB55", "test": "HCMV viral protein accumulation by Western blot after antisense miR132 LNA transfection", "format": "cell-based", "settings": "HEL cells transfected, infected with HCMV; versus control LNA", "protocol": "as §1"}, "IRS-1": {"test_system": "IRS-1", "test": "IRS-1 protein Western blot after transfection with miR145 mimic", "format": "cell-based, Human", "settings": "HEL fibroblasts; 48, 72 and 96 hours post transfection; compared to control miRNA transfected cells", "protocol": "This experiment was performed to determine whether a miR145 mimic targets Insulin Receptor Substrate-1 (IRS-1) mRNA, which is a target of miR145, in HEL fibroblasts. HEL fibroblasts were transfected with either a control miRNA (ct) or miR145 mimic (145) (Dharmacon). Cell pellets were collected at 24, 48, 72 and 96 hours post transfection and lysed. Western blot was performed using an anti IRS-1 antibody (Upstate Biothechnology). Actin is shown as a loading control. […] This downregulation is not observed in the cells transfected with a control miRNA, or the mock-transfected cells."}, "[3]": {"test_system": "HCMV proteins IE2, pp65, gB55, IE1", "test": "HCMV viral protein expression by western blot after miR145 mimic transfection", "format": "cell-based", "settings": "HEL fibroblasts, HCMV MOI=1, 24-144 hpi; compared to control miRNA", "protocol": "These experiments were performed to establish the role of miR145 on HCMV protein expression. HEL fibroblasts were transfected with either a control miRNA or miR145 mimic (Dharmacon). The cells were infected with HCMV (MOI=1) 24 hours after transfection. Cell pellets were collected at 24, 48, 72, 96, 120 and 144 hpi, lysed and examined for viral protein expression by western blot."}, "HCMV [4]": {"test_system": "HCMV", "test": "HCMV viral titers in supernatants by plaque assay after miR145 mimic transfection", "format": "cell-based", "protocol": "This experiment was performed to determine whether altered regulation of miR145 following viral infection affects viral replication. HEL fibroblasts were transfected with either a control (ct) miRNA or a miR145 mimic (145) (Dharmacon). The cells were infected with HCMV (MOI=1) 24 hours after transfection. Supernatants were collected at 24, 48, 72, 96, 120 and 144 hpi and examined for viral titers by plaque assay. […] A 10-fold difference can be observed from 72 to 96 hpi. At 144 hpi, viral titers are similar in the control and miR145 mimic transfected cells. […] This is consistent with the hypothesis that downregulation of miR145 contributes to HCMV pathogenesis by enhancing its replication."}}}
{"substance": "miR212 LNA: miR212 specific antisense locked nucleic acid (Exiqon); exemplary sequence 5' GGCCGTGACTGGAGACTGTTA 3' (SEQ ID NO:14) (LNA-modified antisense, pattern not given here)", "values": [{"measurement": "MeCP2 protein levels", "setting": "MeCP2", "value": "modest increase"}, {"measurement": "viral replication (virus release, viral proteins IE2, pp65, gB55)", "setting": "HCMV [1]", "value": "attenuates viral replication"}]}
{"substance": "miR132 LNA: miR132 specific antisense locked nucleic acid (Exiqon); exemplary sequence 5' CGACCATGGCTGTAGACTGTTA 3' (SEQ ID NO:13) (antisense CGACCATGGCTGTAGACTGTTA; LNA-modified antisense, pattern not given here)", "values": [{"measurement": "MeCP2 protein levels", "setting": "MeCP2", "value": "modest increase"}, {"measurement": "expression of viral protein IE2", "setting": "[2]", "value": "reduced"}, {"measurement": "expression of viral protein gB55", "setting": "[2]", "value": "reduced"}, {"measurement": "expression of viral protein pp65", "setting": "[2]", "value": "reduced"}, {"measurement": "decrease in virus replication", "setting": "HCMV [1]; HEL cells transfected, then infected with HCMV, virus release and viral protein expression", "value": 3, "unit": "fold"}, {"measurement": "viral replication (virus release, viral proteins IE2, pp65, gB55)", "setting": "HCMV [1]", "value": "attenuates viral replication"}]}
{"substance": "miR145 mimic: miR145 mimic (Dharmacon) transfected into HEL fibroblasts; mimics mature miR145 (SEQ ID NO:2) (GUCCAGUUUUCCCAGGAAUCCCU; mimic duplex, passenger strand not given here; listed as Homo sapiens)", "values": [{"measurement": "IRS-1 protein level", "setting": "IRS-1", "value": "Downregulation"}, {"measurement": "IE1 levels", "setting": "[3]", "value": "Increased IE1 levels"}, {"measurement": "levels of the Early (E) protein pp65", "setting": "[3]", "value": "Decreased levels"}, {"measurement": "levels of the Immediate Early (IE) 2 protein", "setting": "[3]", "value": "Decreased levels"}, {"measurement": "levels of the Late (L) protein gB55", "setting": "[3]", "value": "Decreased levels"}, {"measurement": "viral titers in the supernatants", "setting": "HCMV [4]; HEL fibroblasts transfected 24 h before HCMV infection (MOI=1), compared to control miRNA", "value": "decreased viral titers"}, {"measurement": "viral titers versus control", "setting": "HCMV [4]; HEL fibroblasts, HCMV MOI=1, at 144 hpi", "value": "similar"}, {"measurement": "difference in viral titers", "setting": "HCMV [4]; HEL fibroblasts, HCMV MOI=1, from 72 to 96 hpi, versus control miRNA", "value": 10, "unit": "fold"}, {"measurement": "reduction in viral titers", "setting": "HCMV [4]; fibroblast cells transfected, subsequently infected with HCMV", "value": "> 1", "unit": "log"}]}
